Results from patent US10786505B2, “Administration of NEDD8-activating enzyme inhibitor and chemotherapeutic agents” (Millennium Pharmaceuticals, Inc., priority 2013, dated 2020).

How the values were obtained:
[1] = system: HCT116; test: In vitro cell viability combination assay (CellTiter-Glo); settings: 48 hr
Experimental: (§9) General Method: Cells are grown in their respective growth media, supplemented with 10% fetal bovine serum unless otherwise noted. […] A portion of each plate is used for positive controls (no agent is added), while another portion of each plate is used for negative controls (no cells are added). Viability is assessed with CellTiter-Glo® Cell Viability reagent used according to manufacturer's instructions (Promega). Luminescence is measured using a LEADseeker imaging system (GE Healthcare).
(§10) The viability data is normalized separately for each plate by scaling the data so that the median of the negative controls is 0 and the median of the positive controls is 100. More formally,
(§11) [formula] where Vi is the normalized viability of the i^th well, Ui is the raw viability measurement, median (U) is the median of the negative controls, and median (U+) is the median of the positive controls. After normalization, the controls are discarded.
(§12) where E1, E2, E3, E4, I1, I2, I3, S1, S2, S3, and S4 are parameters, CA and CB are the respective concentrations of agents A and B, and V is the normalized viability measurement. It is assumed that the error values are independent and identically distributed normal random variables.
(§13) The Combination Index is computed based on an isobologram, which is a slice of the dose response surface with constant viability. For the present analysis, the 50% isobologram, which is the dose contour that has 50% viability, is used. […] Since the choice of (DA, DB) can be arbitrary, the constraint DA/DB=EC50A/EC50B is used.
(§14) In such cases, Nonlinear Blending can be used as an alternative measure of synergy or additivity. Nonlinear Blending is found by considering a slice of the dose response surface that intersects both concentration axes and runs parallel to the viability axis. Let VA and VB be the viability where the slice intersects the drug A and B axes, respectively. Let Vmax and Vmin be the maximum and minimum viabilities along the slice. Let NLBS=min(VA,VB)−Vmin NLBA=Vmax−max(VA,VB) Define the Nonlinear Blending value to be NLBS if NLBS>NLBA and −NLBA otherwise.
(§15) After completing the analysis of individual plates, the results are combined across the replicates. For a given measure and a set of replicates, the overall mean and standard error are computed using weighted averaging. A null mean, which corresponded to an additive effect, is then compared with the overall mean. The null mean is 1 for the Combination Index and 0 for Nonlinear Blending. Next, a two sized Z-test is performed based on the estimated mean and standard error. This produces a p-value for each measure and each cell line.
(§16) After computing the mean, standard error, and p-value for each set of replicates, these values require interpretation. Thus, a standard procedure is used to produce a classification (synergy, additivity, subadditivity, antagonism, or inconclusive) in each case. If the Combination Index exists for more than half of the replicates, then these measures are used to make the classification.
(§17) Consider the case where the Combination Index is used to make the classification. If the p-value is greater than 0.05, the estimate for the Combination Index is not statistically different from 1. However, if the standard error is also very large, then the estimate is too uncertain to be informative. […] Otherwise, the classification is “Additivity”. When the p-value is less than 0.05, the estimate for the Combination Index is statistically different from 1. However, if the mean is still close to 1, then the difference is not of practical significance. Thus, the result is classified based on the mean. A mean in the range (0.8, 1.2) is considered close enough to 1 to be classified as Additivity. A mean in the range (0, 0.8) is considered low enough to be classified as Synergy. […] The threshold value of 2 can be derived from the definition of the Combination Index.

[2] = system: A549; test: as above; settings: 72 hr
Experimental: as §9, §10, §11, §12, §13, §14, §15, §16, §17

[3] = system: NCI-H82 xenograft model; test: Combination of cisplatin and MLN4924 in NCI-H82 xenograft model; format: in vivo, mice
Experimental: (§1) NCI-H69 or NCI-H82 small cell lung tumor fragments (30- to 40-mg) are implanted into the subcutaneous space in the area of the right flank of NCr nu/nu mice (7-10 weeks, Charles River Laboratories, Inc, Frederick Md. or Wilmington, Mass.) using a 12-gauge trocar.
(§2) Tumors are measured twice weekly using a vernier caliper. Tumor volumes are calculated using standard procedures (0.5×(length×width^2)). […] Tumor size and body weight are measured approximately twice a week for the duration of the study. Mice are euthanized when their tumor volume reached 10% of their body weight, or when the average tumor volume of a treatment or control group reached approximately 2000 mm^3. Tumor growth continued to be monitored after the dosing period in some studies. Average tumor volume is reported as a function of time for selected groups of selected studies in Figures A, B, and C.
(§3) Measurements from day 0 to 18, 21 or 22 are analyzed as specified in Tables 4-9. All tumor volumes have a value of 1 added to them before log10 transformation. For each animal, the log tumor volume at day 0 is subtracted from the log tumor volume on the subsequent days. This difference vs. time is used to calculate an area under the curve (AUC) for each animal using the trapezoid rule. […] The synergy score for the combination of agents A and B is defined as 100*(mean(AUCAB)−mean(AUCA)−mean(AUCB)+mean(AUCctl))/mean(AUCctl): where AUCAB, AUCA, AUCB, and AUCctl are the AUC values for animals in the combination group, the A group, the B group, and the control group, respectively. The standard error of the synergy score is computed based on the variation in the AUC values among the animals. […] If the P-value is above 0.05, then the combination is considered to be additive. If the P-value is below 0.05, and the synergy score is less than zero, then the combination is considered to be synergistic. […] Otherwise, the combination is classified as antagonistic.

[4] = system: NCI-H510; test: In vitro cell viability combination assay (CellTiter-Glo); settings: agent combined with MLN4924, vehicle DMSO, 96 hr
Experimental: as §9, §10, §11, §12, §13, §14, §15, §16, §17

[5] = system: NCI-H209; test: as above; settings: agent combined with MLN4924, vehicle DMSO, 96 hr
Experimental: as §9, §10, §11, §12, §13, §14, §15, §16, §17

[6] = system: NCI-H82; test: as above; settings: agent combined with MLN4924, vehicle DMSO, 96 hr
[7] = system: NCI-H69; test: as above; format: cell-based; settings: agent combined with MLN4924, vehicle DMSO, 96 hr
From the text: (§4) After normalization, the controls are discarded.
(§5) Otherwise, the classification is “Additivity”.

[8] = system: NCI-H69 xenograft model; test: Combination of cisplatin and MLN4924 in NCI-H69 xenograft model; format: in vivo, mice; settings: 4 mg/kg Cisplatin Q4Dx3 IP
Experimental: as §1, §2, §3

[9] = system: NCI-H526; test: In vitro cell viability combination assay (CellTiter-Glo); settings: agent combined with MLN4924, vehicle DMSO, 96 hr
Experimental: as §9, §10, §11, §12, §13, §14, §15, §16, §17

[10] = system: NCI-H1650 xenograft model; test: Combination of docetaxel and MLN4924 in NCI-H1650 xenograft model; format: in vivo, mice
From the text: NCI-H1650 (2×10^6) tumor cells in RPMI-1640 media are mixed with an equal volume of Matrigel (BD Biosciences) and aseptically injected into the subcutaneous space in the right dorsal flank of Balb/c Nude mice (age 4-6 weeks, Shanghai SINO-British SIPPR/BK Lab Animal Ltd.) using a 25-gauge needle.
(§6) Docetaxel (Henry Schein, Inc., Pittsburgh Pa., Qilu Pharmaceutical Co., Ltd., Jinan, Shandong, China, and Sanofi-Aventis) is formulated in 0.9% saline and administered by intravenous injection (IV) once weekly (QW) at 5 mg/kg or 10 mg/kg.
as §2, §3

[11] = system: LU1143 xenograft model; test: Combination of docetaxel or carboplatin and MLN4924 in LU1143 xenograft model; format: in vivo, mice; settings: 10 mg/kg docetaxel QW IV
Experimental: as §6
(§7) Carboplatin (CARBOplatin Injection, Hospira, Inc., Qilu Pharmaceutical Co., Ltd. Jinan, Shandong, China, and Teva Gry-Pharma GmbH, Ulm, Germany) is formulated in 0.9% saline and administered by IP injection once weekly (QW) at 50 mg/kg. The once weekly schedule is also described as every 7 days (Q7D).
as §2
Measurements from day 0 to 18, 21 or 22 are analyzed as specified in Tables 4-9. All tumor volumes have a value of 1 added to them before log10 transformation. For each animal, the log tumor volume at day 0 is subtracted from the log tumor volume on the subsequent days. This difference vs. time is used to calculate an area under the curve (AUC) for each animal using the trapezoid rule. […] The synergy score for the combination of agents A and B is defined as 100*(mean(AUCAB)−mean(AUCA)−mean(AUCB)+mean(AUCctl))/mean(AUCctl): where AUCAB, AUCA, AUCB, and AUCctl are the AUC values for animals in the combination group, the A group, the B group, and the control group, respectively. The standard error of the synergy score is computed based on the variation in the AUC values among the animals. […] If the P-value is above 0.05, then the combination is considered to be additive. […]

[12] = system: PHTX02B breast xenograft model; test: Combination of docetaxel and MLN4924 in PHTX02B xenograft model; format: in vivo, mice
From the text: The PHTX02B breast xenograft model was established from a patient-derived tumor collected during surgery from a person with invasive ductal carcinoma classified as triple negative breast cancer (ER−/PR−/Her2−) by IHC. PHTX02B tumor fragments (approximately 2×2×3 mm^3) are implanted into the subcutaneous space in the right dorsal flank of female SCID-NOD mice (age 5-7 weeks, Jackson Laboratory, Bar Harbor, Me.) using a 13-gauge trocar.
as §6, §2, §3

[13] = system: LXFE409 xenograft model; test: Combination of docetaxel or carboplatin and MLN4924 in LXFE409 xenograft model; format: in vivo, mice
Experimental: LXFE409 squamous non small cell lung cancer tumor fragments are implanted into the subcutaneous space in the flank of female NMRI nu/nu mice (5-7 weeks, Janvier Labs, Saint Berthevin, France).
as §6, §7, §2, §3

[14] = system: PHTX249Pa xenograft model; test: Combination of gemcitabine and MLN4924 in PHTX249Pa xenograft model; format: in vivo, mice
Experimental: (§8) The PHTX249 Pa pancreatic xenograft model was established from a patient-derived tumor collected during surgery from a person with pancreatic adenocarcinoma. […] Gemcitabine (Gemzar, Henry Schein, Inc, Pittsburgh Pa., and Myoderm Medical, Norristown, Pa.) is formulated in 0.9% saline and administered by intraperitoneal injection (IP) q3Dx4 (every 3 days for a total of 4 doses) at 2.5 mg/kg or 10 mg/kg, or by IV injection twice weekly (BIW) at 20 mg/kg IVU. […] Tumors are measured twice weekly using a vernier caliper. […] Tumor size and body weight are measured approximately twice a week for the duration of the study. […] Tumor growth continued to be monitored after the dosing period in some studies. […] Average tumor volume is reported as a function of time for selected groups of selected studies in Figures A, B, and C. Measurements from day 0 to 18, 21 or 22 are analyzed as specified in Tables 4-9. […] For each animal, the log tumor volume at day 0 is subtracted from the log tumor volume on the subsequent days. This difference vs. time is used to calculate an area under the curve (AUC) for each animal using the trapezoid rule. In instances when an animal in a treatment group is removed early from the study, the last observed tumor value is carried forward through all subsequent time points. […] The standard error of the synergy score is computed based on the variation in the AUC values among the animals. […] Otherwise, the combination is classified as antagonistic.

[15] = system: PHTX02B xenograft model; test: Combination of gemcitabine and MLN4924 in PHTX02B xenograft model; format: in vivo, mice
Experimental: as §8, with “PHTX02B breast” for “PHTX249 Pa pancreatic”, “invasive ductal carcinoma classified as triple negative breast cancer (ER-/PR-/Her2-) by IHC.” for “pancreatic adenocarcinoma.”

[16] = system: PANC1; test: In vitro cell viability combination assay (CellTiter-Glo); format: cell-based; settings: agent combined with MLN4924, vehicle DMSO, 72 hr
From the text: as §4, §5

[17] = system: BxPC3; test: as above; format: cell-based; settings: agent combined with MLN4924, vehicle DMSO, 72 hr
From the text: as §4, §5

[18] = system: MIA PaCa-2; test: as above; format: cell-based; settings: agent combined with MLN4924, vehicle DMSO, 72 hr
From the text: as §4, §5

[19] = agent combined with MLN4924, vehicle DMSO
[20] = agent combined with MLN4924, vehicle PBS

N.N.[Cl][Pt][Cl] [cisplatin]
Combination Index [1, 19]: 0.76 ± 0.02 | Nonlinear Blending [1, 19]: 21 ± 1 | Combination Index [1, 20]: 0.76 ± 0.09 | Nonlinear Blending [1, 20]: 14 ± 6 | Combination Index [2, 19]: 0.65 ± 0.03 | Nonlinear Blending [2, 19]: 11 ± 5 | Combination Index [2, 20]: 0.75 ± 0.05 | Nonlinear Blending [2, 20]: 10 ± 1 | average tumor volume day 22 ([3]; 2 mg/kg cisplatin Q4Dx3 IP): 628.7 mm^3 | average tumor volume day 22 ([3]; 4 mg/kg cisplatin Q4Dx3 IP): 445.2 mm^3 | Nonlinear Blending [4]: 20 ± 3 | Combination Index [5]: 1.28 ± 0.08 | Nonlinear Blending [5]: −15 ± 3 | Combination Index [6]: 0.81 ± 0.07 | Nonlinear Blending [6]: 10 ± 2 | Combination Index [7]: 1.28 ± 0.2 | Nonlinear Blending [7]: −7 ± 3 | average tumor volume day 22 [8]: 213.6 mm^3

CC(=O)O[C@@]12CO[C@@H]1C[C@H](O)[C@@]1(C)C(=O)[C@H](O)C3=C(C)[C@@H](OC(=O)[C@H](O)[C@@H](NC(=O)OC(C)(C)C)c4ccccc4)C[C@@](O)([C@@H](OC(=O)c4ccccc4)[C@H]21)C3(C)C [docetaxel]
Combination Index [1, 19]: 1.01 ± 0.09 | Nonlinear Blending [1, 19]: 7 ± 2 | Combination Index [9]: 1.38 ± 0.06 | Nonlinear Blending [9]: −23 ± 3 | Combination Index [2, 19]: 1.00 ± 0.1 | Nonlinear Blending [2, 19]: 1 ± 1 | average tumor volume day 21 ([10]; 5 mg/kg docetaxel QW IV): 719.2 mm^3 | average tumor volume day 21 ([10]; 10 mg/kg docetaxel QW IV): 282.7 mm^3 | Combination Index [4]: 1.15 ± 0.08 | Nonlinear Blending [4]: −13 ± 4 | average tumor volume day 21 [11]: 498.9 mm^3 | tumor growth during the treatment period (in words) ([12]; PHTX02B breast xenograft, FIG. 1, MLN4924 SC 60 mg/kg BID 5 days on/5 days off, docetaxel 5 mg/kg IV QW, single agents or their combination): inhibited tumor growth compared to the control vehicle group | average tumor volume day 21 ([12]; PHTX02B xenograft, 5 mg/kg docetaxel QW IV): 736.3 mm^3 | Combination Index [5]: 1.27 ± 0.09 | Nonlinear Blending [5]: −16 ± 5 | Combination Index [6]: 1.45 ± 0.09 | Nonlinear Blending [6]: −11 ± 2 | tumor course after the treatment period, to end of study on day 95 (in words) ([13]; LXFE409 sqNSCLC model, FIG. 4, MLN4924 120 mg/kg SC Q2Dx3/week for 3 weeks, docetaxel 10 mg/kg IV QW for 3 weeks, single agents or combination): regrew after the treatment period ended | average tumor volume day 21 ([13]; LXFE409 xenograft, 10 mg/kg docetaxel QW IV): 44.6 mm^3

Nc1ccn([C@@H]2O[C@H](CO)[C@@H](O)C2(F)F)c(=O)n1 [gemcitabine]
Combination Index [1, 19]: 0.49 ± 0.1 | Nonlinear Blending [1, 19]: 30 ± 3 | average tumor volume day 18 ([14]; PHTX249Pa xenograft, 20 mg/kg gemcitabine BIW IV): 585.1 mm^3 | tumor growth compared to the control vehicle group (in words) ([14]; PHTX249 Pa xenograft, gemcitabine 20 mg/kg IV BIW, MLN4924 90 mg/kg SC BID BIW, single agents or their combination): inhibited tumor growth compared to the control vehicle group | Combination Index [2, 19]: 1.44 ± 0.07 | Nonlinear Blending [2, 19]: −16 ± 3 | average tumor volume day 22 ([15]; 2.5 mg/kg gemcitabine Q3Dx4 IP): 1386.3 mm^3 | average tumor volume day 22 ([15]; 10 mg/kg gemcitabine Q3Dx4 IP): 769.4 mm^3 | tumor growth during the treatment period (in words) ([15]; FIG. 2, MLN4924 SC 30 mg/kg BID, gemcitabine 10 mg/kg IP q3dx4, single agents or their combination): inhibited tumor growth compared to the control vehicle group | Combination Index [16]: 0.24 | Nonlinear Blending [16]: 19.4 | Combination Index [17]: 1.49 | Nonlinear Blending [17]: −26.0 | Combination Index [18]: 1.15 | Nonlinear Blending [18]: −8.1

O=C1[O][Pt]2([NH][C@@H]3CCCC[C@H]3[NH]2)[O]C1=O [oxaliplatin]
Nonlinear Blending [1, 20]: 10 ± 5 | Nonlinear Blending [9]: −8 ± 4 | Nonlinear Blending [2, 20]: 2 ± 2 | Nonlinear Blending [4]: 2 ± 3 | Nonlinear Blending [5]: −5 ± 2 | Nonlinear Blending [6]: 6 ± 2 | Nonlinear Blending [7]: 11 ± 3

CC(=O)O[C@H]1C(=O)[C@@]2(C)[C@H]([C@H](OC(=O)c3ccccc3)[C@]3(O)C[C@H](OC(=O)[C@H](O)[C@@H](NC(=O)c4ccccc4)c4ccccc4)C(C)=C1C3(C)C)[C@]1(OC(C)=O)CO[C@@H]1C[C@@H]2O [paclitaxel]
Nonlinear Blending [1, 19]: −14 ± 2 | Nonlinear Blending [9]: −26 ± 3 | Nonlinear Blending [2, 19]: −6 ± 0.9 | Nonlinear Blending [4]: −22 ± 4 | Nonlinear Blending [5]: −8 ± 3 | Nonlinear Blending [6]: −16 ± 2 | Nonlinear Blending [7]: −16 ± 4
